Experimental data taken from patent US20260217656A1, “Compounds Affecting KRAS” (UNIVERSITAT DE BARCELONA, priority 2022, published 2026).

What was measured:
[1] = test system: ERK and AKT in DLD-1-KO cells; assay: Western blot of AKT and ERK activation in serum-starved DLD-1-KO cells; type: cell-based, human; conditions: DLD-1-KO serum-starved cells, 100 μM
From the text: DLD-1 (KRASWT/G13D) (clone V15, #HD PAR-086) colorectal adenocarcinoma cell line and DLD-1 knockout of mutant KRAS allele, DLD-1 KO (KRASWT/−) (clone DWT7, #HD105-002), were obtained from Horizon Discovery Ltd. (Cambridge, UK). hTERT-RPE (KRASWT/WT) immortalized retinal pigment epithelial human cell line was obtained from the […] (ATCC). DLD-1 KO cells stably expressing HA-KRAS G12V were previously generated in our laboratory (Cabot et al., 2021). All cells were grown in DMEM-HAM s F12 (1:1) supplemented with 10% foetal bovine serum (Biological Industries, Israel), penicillin, streptomycin, and nonessential amino acids. […]
For analysis of RAS signalling, cells were lysed in a buffer containing 67 mM Tris-HCl pH 6.8 and 2% SDS and then the samples were heated at 97° C. for 15 minutes. Protein concentration of the lysates was assessed using the Lowry method. […]
Comparison of Ras signaling between DLD-1, DLD-1-KO and hTERT-RPE cells treated with P14B since important differences were observed between the viability of cells treated with P14B depending on their expression or lack of expression of oncogenic KRAS, we further studied whether these discrepancies were reflected also in KRAS downstream signaling. Serum-starved cells (0.1% FCS) were treated with P14B (100 μM) and activation of AKT and ERK was evaluated by WB. […]

[2] = test system: DLD-1 cells; assay: Cleaved caspase-3 Western blot, DLD-1; type: cell-based, human; conditions: DLD-1 cells treated 34 h or 48 h
Protocol: FIG. 6C is a blot showing extracts of DLD-1, DLD-1-KO and RPE cells at 34 h. and 48 h. DLD-1 cells treated with P14B for 36 h and 48 h were lysed and the expression of the apoptosis marker cleaved caspase-3 was analyzed by Western blot. Cells treated with the apoptosis inducer palmitic acid (PA) were used as a positive control.
Proteins were resolved by SDS-PAGE, transferred onto PVDF membranes (Immobilon-P, Millipore) and Western blot was performed as previously described (Cabot et al, Oncogene 2021). […]
Since both inhibition and sustained activation of RAS signaling are related to a decrease in cell survival, we analyzed the viability of the CRC cell lines DLD-1 (expressing oncogenic KRAS) and DLD-1-KO (oncogenic KRAS allele deleted), and the non-transformed cell line hTERT-RPE. […] The effect of P14B in DLD-1 cells cultured in 3D conditions was also determined. […]

[3] = biological target: T1, GST-KRAS (1-166), GTP loaded (Homo sapiens, UniProt P01116, G12V); assay: Surface plasmon resonance analysis; type: binding; conditions: GTP-loaded GST-KRAS (aminoacids 1 to 166) immobilized; read-out: affinity constant (KD)
T1 construct: GST-KRAS (1-166) and GST were covalently immobilized; made in house; host or cells: Escherichia coli BCI21 (so in the source)
T1 sequence (P01116 1-166 isoform P01116-2 G12V): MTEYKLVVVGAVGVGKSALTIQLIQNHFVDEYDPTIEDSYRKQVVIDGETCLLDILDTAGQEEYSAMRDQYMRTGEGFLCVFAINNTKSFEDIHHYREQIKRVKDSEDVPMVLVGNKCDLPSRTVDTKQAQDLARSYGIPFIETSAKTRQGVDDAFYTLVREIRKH
Protocol: Surface Plasmon Resonance Analysis was performed by using BIAcore T200 equipment. GST-KRAS (1-166) and GST were covalently immobilized on two of the channels of CM5 Series S Chip following manufacturers instruction. KRAS was loaded with GTP by injecting 1 mM of GTP 10 μl/min for 30 min in exchange buffer (20 mM Tris-HCl pH 7.5; 50 mM NaCl, 5% glycerol, 0.1% Triton X-100, 1 mM DTT) with 10 mM EDTA at 30° C. and loading was blocked by injecting exchange buffer with 15 mM MgCl2 at 10 μl/min for 5 min. P14B was injected at 12.5 μM, 25 μM, 38.5 μM, 50 μM, 75 μM, 100 μM and 150 μM in running buffer (150 mM NaCl, 50 mM Tris-HCl pH7.5, 2 mM MgCl2, 0.1% Triton and 5% DMSO […] Dissociation was allowed for 10 min in the same buffer. All runs were done by duplicate. Nonspecific binding was subtracted by using two linked channels (GST-KRAS minus GST). Diverse solutions (from 3% to 8%) with DMSO were also prepared to analyse its effect in the RUs, and a solvent correction was performed to reduce the error associated with the injection of the sample. […]
To confirm the direct interaction between KRAS and P14B, surface plasmon resonance analysis was performed. […] Given that P14B is able to bind to oncogenic KRAS (FIG. 4) most likely via the same surface that KRAS uses to interact with CaM, we analyzed the possibility that P14B can displace CaM from oncogenic KRAS. […]

COc1ccc(C(c2c(C)n[nH]c2O)c2c(C)n[nH]c2O)cc1Oc1ccc([N+](=O)[O-])cc1 [Example P14B]
AKT and ERK activation [1]: AKT and ERK activation by P14B was also observed
levels of ERK phosphorylation compared with 10% FBS treatment [1]: significantly lower
cleaved caspase-3 expression [2]: only detected in DLD-1-treated cells
Kd [3]: 32.8 µM
